One data set addresses IDO1 (Homo sapiens, UniProt P14902). Briefly: hIDO1 inhibitory potency evaluation (fluorescence assay, NFK-derived fluorophore). In kind it is biochemical. Set-up: gene encoding human IDO1 residues 6-403 His-tagged at the N-terminus; His tag (N); made in house; host or cells: Escherichia coli NiCo21. Particulars: for IC50: recombinant hIDO1, mean ± SD of at least two independent determinations, read-out: IDO1 IC50; for inhibition at 100 µM: 100 µM compound, n.a. = not active, read-out: IDO1 % of Inhibition @ 100 µM.

The next data set deals with T1, hIDO2 (Homo sapiens, UniProt Q6ZQW0).
T1 construct: purchased Vinci-Biochem
T1 sequence (Q6ZQW0 1-407): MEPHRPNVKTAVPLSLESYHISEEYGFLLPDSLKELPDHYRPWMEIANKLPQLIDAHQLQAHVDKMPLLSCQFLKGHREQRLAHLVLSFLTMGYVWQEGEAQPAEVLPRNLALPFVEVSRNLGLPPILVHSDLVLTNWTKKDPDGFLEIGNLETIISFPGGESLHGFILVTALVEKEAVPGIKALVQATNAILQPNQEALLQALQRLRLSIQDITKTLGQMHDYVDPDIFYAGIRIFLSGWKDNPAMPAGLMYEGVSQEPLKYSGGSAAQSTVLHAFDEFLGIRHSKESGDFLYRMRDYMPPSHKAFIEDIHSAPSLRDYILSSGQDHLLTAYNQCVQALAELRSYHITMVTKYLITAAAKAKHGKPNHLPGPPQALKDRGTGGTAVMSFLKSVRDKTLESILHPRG
Briefly: hIDO2 inhibitory potency evaluation (fluorescence assay). In kind it is biochemical. Particulars: 100 µM compound; n.a. = not active; read-out: IDO2 % of Inhibition @ 100 µM. The method, then: (§1) Additionally, to determine IDO1 selectivity, all final compounds were assayed for their inhibitory potencies towards hIDO2 and hTDO. For this purpose, two new protocols were developed based on the published fluorescence assay for hIDO1 [25]. Sodium ascorbate, methylene blue, and bovine catalase were used in the same concentrations as for hIDO1. 50 mM phosphate buffers with pH values of 7.5 and 7.0 were used for hIDO2 and hTDO, respectively, as has been already mentioned before. First, the activities of hIDO2 and hTDO were determined at four different concentrations. […] Additionally, the effect of DMSO concentration on enzyme activity was investigated. […] The optimal hIDO2 and hTDO assay concentrations of the substrate L-Trp were determined to be 4 mM and 500 μM, respectively.
Activity of the compounds on hIDO2 was determined according to the previously reported fluorescence protocol for hIDO1 [25] and reported absorbance protocols for hIDO2 [30, 36] with several modifications. Recombinant hIDO2 was purchased from Vinci-Biochem (Vinci-Biochem, Srl, Vinci, Italy), bovine catalase was purchased from Sigma-Aldrich (Sigma-Aldrich, St. Louis, MO, USA). Prior to the measurement of activity for compounds, the enzyme activity was determined and optimal assay enzyme concentration was selected. The amounts of reagents needed to perform the assay were optimized. Briefly, the reagents needed were dissolved in 50 mM potassium phosphate buffer (pH 7.5, 0.01%, v/v Tween 20), the reaction was performed in black 384-well microplates. After the addition of 1 μL of 100 mM sodium ascorbate neutralized with an equimolar amount of 1M NaOH, 1 μL of 100 μM methylene blue, 1 μL of 1 mg/mL bovine catalase, 0.5 μL of DMSO (negative control) or solution of a compound in DMSO, 5 μL of […] hIDO2 and 1.5 μL of 26.7 mM L-Trp were added and the microplate was incubated for 60 min at 37 °C. The reaction was quenched with the addition of 10 μL of 400 mM piperidine solution in MilliQ water and the formation of the examined fluorophore began following incubation at 65 °C for 20 min. The production of NFK-derived fluorophore (λEX = 400 nm, λEM = 500 nm) was measured using a microplate reader (Synergy H4; BioTek Instruments, Inc., Winooski, VT, USA) after 60 min post-incubation at room temperature. In the preliminary testing compounds were tested at 100 μM with activities determined as residual activities—RA, which were calculated to% of inhibition, presented in Table 1 and Table 2. (% of inhibition = 100% − RA). All determinations were carried out in duplicates.

The target in another data set is T2, hTDO (Homo sapiens, UniProt P48775).
T2 construct: purchased Vinci-Biochem
T2 sequence (P48775 whole entry): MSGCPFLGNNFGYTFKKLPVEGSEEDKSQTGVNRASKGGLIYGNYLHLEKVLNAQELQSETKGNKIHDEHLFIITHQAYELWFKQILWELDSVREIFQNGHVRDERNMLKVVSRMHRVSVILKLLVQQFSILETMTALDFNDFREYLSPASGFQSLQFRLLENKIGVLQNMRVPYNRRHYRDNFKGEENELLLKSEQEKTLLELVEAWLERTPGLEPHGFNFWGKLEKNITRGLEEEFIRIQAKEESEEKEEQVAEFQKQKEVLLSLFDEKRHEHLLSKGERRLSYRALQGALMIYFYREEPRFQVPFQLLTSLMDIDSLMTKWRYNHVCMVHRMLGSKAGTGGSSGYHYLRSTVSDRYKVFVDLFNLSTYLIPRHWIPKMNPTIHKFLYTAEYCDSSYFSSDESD
Briefly: hTDO inhibitory potency evaluation (fluorescence assay). In kind it is biochemical. Particulars: 100 µM compound; n.a. = not active; read-out: TDO % of Inhibition @ 100 µM. On the procedure: as §1
The activity of the compounds on hTDO was determined according to the previously reported fluorescence protocol for hIDO1 [25] and reported absorbance protocols for hTDO [30] with several modifications. Recombinant hTDO was purchased from Vinci-Biochem (Vinci-Biochem, Vinci, Italy), bovine catalase was purchased from Sigma-Aldrich (Sigma-Aldrich, St. Louis, MO, USA). Prior to the measurement of activity for compounds, the enzyme activity was determined, and optimal assay enzyme concentration was selected. The amounts of reagents needed to perform the assay were optimized. Briefly, the reagents needed were dissolved in 50 mM potassium phosphate buffer (pH 7.0, 0.01%, v/v Tween 20), the reaction was performed in black 384-well microplates. After the addition of 1 μL of 100 mM sodium ascorbate neutralized with equimolar amount of 1 M NaOH, 1 μL of 100 μM methylene blue, 1 μL of 1 mg/mL bovine catalase, 0.5 μL of DMSO (negative control) or solution of a compound, 5 μL of 300 nM hTDO and 1.5 μL of 3.3 mM L-Trp were added and the microplate was incubated for 60 min at 37 °C. The reaction was quenched with the addition of 10 μL of 400 mM piperidine solution in MilliQ water and the formation of the examined fluorophore began following incubation at 65 °C for 20 min. The production of NFK-derived fluorophore (λEX = 400 nm, λEM = 500 nm) was measured using a microplate reader (Synergy H4; BioTek Instruments, Inc., Winooski, VT, USA) after 60 min post-incubation at room temperature. In the preliminary testing compounds were tested at 100 μM with activities determined as residual activities—RA, which were calculated to% of inhibition, presented in Table 1 and Table 2 (% of inhibition = 100% − RA). All determinations were carried out in duplicates.

The text below walks through data of publication PMC8001472, “Novel Selective IDO1 Inhibitors with Isoxazolo[5,4-d]pyrimidin-4(5H)-one Scaffold” (Pharmaceuticals, 2021).

SMILES strings stand for the structures.

Usually IC50 stands for the point on the concentration scale where inhibition reaches its midpoint. In general, melting point refers to the temperature, or range, at which the solid turns liquid. For orientation: inhibition means the share of the control response that was lost under treatment.

Chain of IDO1 (P14902 6-403): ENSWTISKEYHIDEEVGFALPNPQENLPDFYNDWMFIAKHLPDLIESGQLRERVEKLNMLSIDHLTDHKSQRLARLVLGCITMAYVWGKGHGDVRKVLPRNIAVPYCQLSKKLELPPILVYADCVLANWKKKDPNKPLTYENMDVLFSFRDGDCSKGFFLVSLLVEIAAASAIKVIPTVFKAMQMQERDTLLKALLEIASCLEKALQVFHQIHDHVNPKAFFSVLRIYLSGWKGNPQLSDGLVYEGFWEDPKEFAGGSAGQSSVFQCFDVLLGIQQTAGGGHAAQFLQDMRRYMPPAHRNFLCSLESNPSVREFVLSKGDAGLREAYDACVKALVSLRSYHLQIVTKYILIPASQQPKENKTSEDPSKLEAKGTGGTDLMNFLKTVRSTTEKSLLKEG

In the case of `O=C(Cn1cnc2onc(-c3ccc(F)cc3)c2c1=O)N1CCCc2ccccc21` [Compound 12], the IC50 on IDO1 is 50 µM.

Regarding `CN(C)C(=O)Cn1cnc2onc(-c3ccc(F)cc3)c2c1=O` [Compound 13], the melting point was in the range of 215 to 217 °C. Moreover, at IDO1, the inhibition at 100 µM was 21 ± 5%.

The compound `O=C(Cn1cnc2onc(-c3ccc(F)cc3)c2c1=O)N1CCCCC1` [Compound 14] displayed a melting point of 174 to 176 °C. The inhibition at 100 µM on IDO1 was found to be 27 ± 4%.

Compound `O=C(Cn1cnc2onc(-c3ccc(F)cc3)c2c1=O)NC12CC3CC(CC(C3)C1)C2` [Compound 15] returned a melting point of 204 to 205 °C. Besides, the IC50 at IDO1 worked out at 88 µM.

Turning to `O=C(Cn1cnc2onc(-c3ccc(F)cc3)c2c1=O)Nc1ccccc1` [Compound 16], the melting point was 203 to 205 °C. On hIDO2, the inhibition at 100 µM was determined as 28 ± 9%. Moreover, on IDO1, the “hIDO1 inhibition (in words)” value is listed as “only weak inhibition” and the inhibition at 100 µM was found to be 15 ± 4%.

As to `O=C(Cn1cnc2onc(-c3ccc(F)cc3)c2c1=O)Nc1ccc(F)cc1` [Compound 17], the melting point lay in the range of 206 to 209 °C. Also, at IDO1, the “hIDO1 inhibition (in words)” value is reported as “only weak inhibition” and the inhibition at 100 µM was determined as 33 ± 2%.

In turn, `COC(=O)c1ccccc1NC(=O)Cn1cnc2onc(-c3ccc(F)cc3)c2c1=O` [Compound 18] showed a melting point of 212 to 214 °C. The inhibition at 100 µM on hIDO2 turned out to be 15 ± 1%. Besides, the inhibition at 100 µM at IDO1 was found to be 32 ± 4%.

As for `COC(=O)c1cccc(NC(=O)Cn2cnc3onc(-c4ccc(F)cc4)c3c2=O)c1` [Compound 19], the 50% inhibitory concentration (IC50) on IDO1 was 55 µM.

For the compound `COC(=O)c1ccc(NC(=O)Cn2cnc3onc(-c4ccc(F)cc4)c3c2=O)cc1` [Compound 20], the melting point lay within 234 to 236 °C. On IDO1, the “hIDO1 inhibition (in words)” value is listed as “low micromolar range” and the half-inhibitory concentration (IC50) was found to be 27 µM.

`COC(=O)c1ccc(CNC(=O)Cn2cnc3onc(-c4ccc(F)cc4)c3c2=O)cc1` [Compound 21] showed a melting point of 165 to 167 °C. In addition, the inhibition at 100 µM on IDO1 came out at 27 ± 3%.

Regarding `O=C(Cn1cnc2onc(-c3ccc(F)cc3)c2c1=O)Nc1cccc(C(F)(F)F)c1` [Compound 22], the melting point lay in the range of 195 to 200 °C. Also, the IC50 at IDO1 came to 55 µM.

Regarding `CS(=O)(=O)c1ccc(NC(=O)Cn2cnc3onc(-c4ccc(F)cc4)c3c2=O)cc1` [Compound 26], the melting point is 234 to 238 °C. On IDO1, the “hIDO1 inhibition (in words)” value was “inactive” and the inhibition at 100 µM is 11 ± 2%.

Turning to `CN(C)c1ccc(NC(=O)Cn2cnc3onc(-c4ccc(F)cc4)c3c2=O)cc1` [Compound 28], the inhibition at 100 µM amounted to 18 ± 4% on hTDO and 31 ± 3% on IDO1. Further, the “hIDO1 inhibition (in words)” value at IDO1 is “weak inhibition”.

As to `O=C(Cn1cnc2onc(-c3ccc(F)cc3)c2c1=O)Nc1ccc(-c2nn[nH]n2)cc1` [Compound 30], the inhibition at 100 µM on hTDO stood at 17 ± 2%. Besides, the “hIDO1 inhibition (in words)” value at IDO1 was “inactive”.

As for `CC(C)c1ccc(NC(=O)Cn2cnc3onc(-c4ccc(F)cc4)c3c2=O)cc1` [Compound 31], the melting point lay within 198 to 202 °C. The IC50 at IDO1 was 87 µM.

On to `O=C(Cn1cnc2onc(-c3ccc(F)cc3)c2c1=O)Nc1ccc(C2CCCCC2)cc1` [Compound 32], for which, at IDO1, the “hIDO1 inhibition (in words)” value was “low micromolar range” and the IC50 came out at 22 µM.

Consider `COc1cc(NC(=O)Cn2cnc3onc(-c4ccc(F)cc4)c3c2=O)cc(OC)c1OC` [Compound 34], for which the melting point was in the range of 219 to 221 °C. Also, the “hIDO1 inhibition (in words)” value at IDO1 was “inactive”.

In the case of `O=C(Cn1cnc2onc(-c3ccc(F)cc3)c2c1=O)Nc1cccc2ccccc12` [Compound 35], the melting point is 210 to 215 °C. For the same compound, the inhibition at 100 µM on IDO1 was 20 ± 6%.

On to `O=C(Cn1cnc2onc(-c3ccc(F)cc3)c2c1=O)Nc1ccc2ccccc2c1` [Compound 36], for which the melting point fell in the range of 180 to 184 °C. Besides, the inhibition at 100 µM at hIDO2 was found to be 13 ± 2%. At IDO1, the IC50 amounted to 46 µM.

In turn, `O=C(Cn1cnc2onc(-c3ccc(F)cc3)c2c1=O)N1CCc2ccccc2C1` [Compound 37] had a melting point of 201 to 203 °C. Besides, the inhibition at 100 µM on IDO1 stood at 17 ± 5%.

Turning to `O=C(Cn1cnc2onc(-c3ccccc3)c2c1=O)N1CCCc2ccccc21` [Compound 38], the inhibition at 100 µM on hIDO2 worked out at 16 ± 4%.

Take `O=C(Cn1cnc2onc(-c3ccccc3)c2c1=O)Nc1ccc([N+](=O)[O-])cc1` [Compound 40]: the melting point was in the range of 197 to 199 °C. Also, the inhibition at 100 µM at hIDO2 came to 16 ± 5%.

For the compound `O=C(Cn1cnc2onc(-c3ccc(Br)cc3)c2c1=O)N1CCCc2ccccc21` [Compound 41], the inhibition at 100 µM at IDO1 came to 32 ± 1%.

In the case of `COc1ccc(-c2noc3ncn(CC(=O)N4CCCc5ccccc54)c(=O)c23)cc1` [Compound 42], the melting point lay in the range of 171 to 178 °C. Besides, at IDO1, the inhibition at 100 µM was 15 ± 4%.

Turning to `O=C(Cn1cnc2onc(-c3ccc(OCc4ccccc4)cc3)c2c1=O)N1CCCc2ccccc21` [Compound 46], the melting point was 200 to 202 °C. In addition, on IDO1, the inhibition at 100 µM worked out at 14 ± 3%.

In the case of `O=C(Cn1cnc2onc(-c3ccc(F)c(F)c3)c2c1=O)N1CCCc2ccccc21` [Compound 47], on IDO1, the inhibition at 100 µM amounted to 34 ± 1%.

`O=C(Cn1cnc2onc(-c3cccs3)c2c1=O)N1CCCc2ccccc21` [Compound 50]: the melting point was 202 to 205 °C.

In the case of `O=C(Cn1cnc2onc(-c3cccs3)c2c1=O)Nc1ccc([N+](=O)[O-])cc1` [Compound 51], on IDO1, the half-maximal inhibitory concentration (IC50) is 53 µM.

As to `O=C(Cn1cnc2onc(-c3ccsc3)c2c1=O)N1CCCc2ccccc21` [Compound 52], the inhibition at 100 µM on IDO1 is 23 ± 5%.

Consider `O=C(Cn1cnc2onc(-c3ccsc3)c2c1=O)Nc1ccc([N+](=O)[O-])cc1` [Compound 53], for which the melting point was 231 to 233 °C. At hIDO2, the inhibition at 100 µM was 21 ± 6%. The concentration for half-maximal inhibition (IC50) at IDO1 was found to be 40 µM.
